The record followed here is the NIST ThermoML archive (doi:10.1016/j.tca.2013.02.006).

Molecules are shown by their SMILES. ± gives the expanded uncertainty stated by the source.

For series [1] the following is noted: 101.33 kPa, Liquid, Vibrating tube method.
Series [2] is described as follows: refractive index (Na D-line) (dimensionless). To be noted: 298.2 K; 101.33 kPa; Liquid; Standard Abbe refractometry.

For orientation: mass density means mass per unit of volume. Usually refractive index stands for a measure of how strongly the sample bends light. Turning to `CCCCCCCCCCCCS` [1-dodecanethiol], in series [1] (293.2 K), the mass density is reported as 843.94 ± 0.24 kg/m3. Further, the refractive index in series [2] was determined as 1.4586 ± 0.0008.
For the compound `CCCCCCCCCCO` [decan-1-ol], in series [1] (298.2 K), the mass density is reported as 826.48 ± 0.24 kg/m3. In addition, the refractive index in series [2] turned out to be 1.4349 ± 0.0008.
As to `CCCCCCCCCCCCO` [dodecan-1-ol], in series [1] (298.2 K), the mass density turned out to be 829.76 ± 0.24 kg/m3. Moreover, the refractive index in series [2] is listed as 1.4412 ± 0.0008.
